Data on 20 compounds can be found in paper PMC11995238, “Discovery of Highly Potent BET Inhibitors based on a Tractable Tricyclic Scaffold” (ACS Medicinal Chemistry Letters, 2025).

≈ marks a conversion by molar mass, not a printed value. Where “and” joins values, the source holds several entries; their conditions need not be identical. Identical values can stand only once. Like-named read-outs stand apart in the source and are kept apart here.

Data set [1] can be described thus: hydrophobicity (chrom LogD7.4) and property forecast index (PFI). It counts as physicochemical. The settings on record: for PFI: PFI = chrom LogD7.4 + #Ar; for chromatographic logD: pH 7.4, chromatographic. On the procedure: (§1) Potency was determined against BRD4-BD1 using FRET binding, with this being treated as a surrogate of BRD4 activity given the homology between BD1 and BD2 across the BET proteins. , PFI is calculated from hydrophobicity plus aromatic ring count (chromatographic (chrom) logD7.4 + #Ar), with this metric being indicative of developability, or likelihood of progression to a drug candidate. PFI was used to assess the physicochemical profile of compounds, with a target of PFI < 7 as risks for several parameters, including solubility, are increased above this upper limit. Our objective was to develop a BET inhibitor with high potency and favorable physicochemical properties, as determined using PFI and LipE to guide compound optimization.
(§2) hydrophobicity (chrom LogD7.4), solubility (CAD), permeability (PAMPA)
(§3) and metabolic stability (CLint) have all been described previously.1

The target of data set [2] is T1, BRD4-BD1 (Homo sapiens, UniProt O60885). Kind of data set: lipophilic efficiency (LipE = pIC50 – cLogP). The settings on record: predicted using Data Warrior. The text has this:
The final BET inhibitor discussed is BMS-986158 (4) (Figure ).

Data set [3] in a line: parallel artificial membrane permeability assay (PAMPA). It counts as in vitro ADME. How it is done: Additionally, the in vitro permeability of these compounds was determined by a parallel artificial membrane permeability assay (PAMPA). […] This would be protonated at physiological pH and decrease the overall affinity of the compound toward the hydrophobic membrane region.
as §2, §3
On the technique in general: The PAMPA barrier holds no transporters, so it reflects passive diffusion.

Data set [4] can be described thus: kinetic solubility by CAD. It counts as physicochemical. The settings on record: n = 1. On the procedure:
(§4) For both enantiomers, kinetic solubility, permeability and metabolic stability data, the latter measured by in vitro microsomal intrinsic clearance (CLint) in rats and humans, was collected (Table ). , Docking of 44 and 45 into the BRD4-BD1 binding pocket was also carried out (Figures S3–4).
as §2, §3

For the next data set, the system named is BRD2. The settings on record: binding to BRD2, reported; cited from earlier work.
The next data set concerns BRD3. The settings on record: binding to BRD3, reported; cited from earlier work.
In data set [5] the test system is BRD4. The settings on record: binding to BRD4, reported; cited from earlier work.
In data set [6] the test system is panel of human lung cancer cell lines. The settings on record: reported; cited from earlier work.
Data set [7] has as its target T1, BRD4-BD1. Kind of data set: BRD4-BD1 FRET binding. The settings on record: for pIC50 ± SD: n = 4. How it is done:
as §1

Data set [8] is described as follows: in vitro metabolic stability in rat liver microsomes (CLint). The class given is in vitro ADME, rats. The settings on record: n = 1. On the procedure:
as §4, §2, §3
A general note: Microsomes from liver hold many membrane-bound enzymes, among them those of drug oxidation.

Data set [9] can be described thus: in vitro metabolic stability in human liver microsomes (CLint). The settings on record: n = 1. It counts as in vitro ADME, humans. On the procedure: as §4, §2, §3
Data set [10] concerns BRD4. The settings on record: BRD4, FRET binding; cited from earlier work.
Another data set concerns c-Myc expression. The settings on record: advanced malignancies such as AML; cited from earlier work.
A further data set has as its system tumor cell. The settings on record: advanced malignancies such as AML; cited from earlier work.
Data set [11] has as its system BRD4. The settings on record: BRD4, fluorescence polarization; cited from earlier work. In general terms: Fluorescence polarisation rises when a labelled molecule tumbles more slowly, as on binding a larger partner.
The conditions of data set [12]: Phase I studies; cited from earlier work.
Data set [13] concerns BRD4. The settings on record: BRD4, AlphaScreen; cited from earlier work.
For data set [14] the following is noted: cited from earlier work.
Where [15] appears, read: BRD4-BD1, FRET binding, n = 2, enantiomers.
The mark [16] stands for this setting: BRD4-BD1, values for 29, 30, 40.

Broadly, the chromatographic logD is a lipophilicity value derived from retention on a column. Read a low chromatographic logD as a more hydrophilic compound. One may read the Papp as the rate of passage across a membrane or cell layer, normalised by area and donor concentration. Low values mean slow passage, high ones fast passage. For orientation: Solubility means the concentration that dissolves in the medium under given conditions. Read a low Solubility as little dissolved substance. The term IC50 denotes the point on the concentration scale where inhibition reaches its midpoint. Regarding `Cc1nnn(C)c1-c1cnc2c3ccc(C(C)(C)O)cc3n([C@@H](c3ccccc3)C3CCOCC3)c2c1` (stereo in doubt) [Compound 4, BMS-986158, reference compound], the PFI in data set [1] was determined as 9.08. In data set [1], this compound returned a chromatographic logD of 4.08. Moreover, the LipE on BRD4-BD1 [2] is recorded as 3.51. For the same compound, the Papp in [3] was 49.8 ×10⁻⁶ cm/s. In [4], the Solubility was found to be 109 µg/mL (≈ 220 µM). Besides, the figures for the IC50 in the data set on BRD2, in the data set on BRD3 and in the data set on BRD4 [5] were 0.8 nM, 1.4 nM and 1.1 nM, respectively. Further, the cytotoxicity result in data set [6] is “potent cytotoxicity”.

Regarding `COCCNc1nnc2c3cc(-c4c(C)noc4C)ccc3n(Cc3ccccc3)c2n1` [Compound 12b], the “pIC50 ± SD” value on BRD4-BD1 [7] (BRD4-BD1, FRET binding) came to 6.08 ± 0.34. Further, the PFI in data set [1] is 10.8. Further, on BRD4-BD1 [2], the LipE is recorded as 2.77.

`COCCNc1nnc2c3ccc(-c4c(C)noc4C)cc3n(C(c3ccccn3)C3CCOCC3)c2n1` (stereo not drawn) [Compound 24]: the “pIC50 ± SD” value at BRD4-BD1 [7] (BRD4-BD1, FRET binding) was determined as 8.01 ± 0.11. The PFI in [1] is recorded as 9.74. For the same compound, on BRD4-BD1 [2], the LipE is listed as 4.38.

What is called pIC50 is −log10 of the IC50, conventionally taken in molar units. Usually microsomal CLint stands for the capacity of the preparation to metabolise the compound, expressed as a volume cleared per time. A low value points to slow turnover. On BRD4-BD1 [7] (setting [15]), `Cc1nnn(C)c1-c1ccc2c3nnc(NCCO)nc3n([C@@H](c3ccccn3)C3CCOCC3)c2c1` (single isomer, unassigned) [Compound 44] gave a pIC50 of 8.35 ± 0.01. In [1], the PFI is listed as 7.14. The chromatographic logD in data set [1] turned out to be 2.14. Besides, at BRD4-BD1 [2], the LipE is 6.16. In addition, in data set [3], the Papp was 7.78 ×10⁻⁶ cm/s. In addition, the Solubility in [4] stood at 134 µg/mL (≈ 268 µM). Besides, the microsomal CLint in [8] and in data set [9] was less than 10 µL/min/mg in each case.

In the case of `COCCNc1nnc2c3ccc(-c4c(C)noc4C)cc3n(C(c3ccccc3)C3CCNCC3)c2n1` (stereo not drawn) [Compound 27], on BRD4-BD1 [7] (BRD4-BD1, FRET binding), the “pIC50 ± SD” value worked out at 7.63 ± 0.05. Further, the PFI in data set [1] is reported as 7.96. In addition, at BRD4-BD1 [2], the LipE is 3.20.

`COCCNc1nnc2c3ccc(-c4c(C)noc4C)cc3n(C(c3ccccn3)C3CCNCC3)c2n1` (stereo not drawn) [Compound 28]: the “pIC50 ± SD” value at BRD4-BD1 [7] (BRD4-BD1, FRET binding) stood at 7.74 ± 0.12. The PFI in data set [1] worked out at 7.37. At BRD4-BD1 [2], the LipE was 4.25.

For `COCCNc1nnc2c3ccc(-c4c(C)noc4C)cc3n(Cc3ccc(F)cc3)c2n1` [Compound 13a], at BRD4-BD1 [7] (BRD4-BD1, FRET binding), the “pIC50 ± SD” value amounted to 7.34 ± 0.04. In addition, in data set [1], the PFI was determined as 10.7. Besides, the LipE at BRD4-BD1 [2] is recorded as 3.93.

`COCCNc1nnc2c(n1)[nH]c1cc(-c3c(C)noc3C)ccc12` [Compound 5a]: the “pIC50 ± SD” value at BRD4-BD1 [7] (BRD4-BD1, FRET binding) is listed as 6.22 ± 0.05. Besides, the PFI in [1] came to 6.83. Also, at BRD4-BD1 [2], the LipE is reported as 4.39.

In the case of `CCS(=O)(=O)Nc1ccc(Oc2ccc(F)cc2F)c(-c2cn(C)c(=O)c3[nH]ccc23)c1` [Compound 3, N-(4-(2,4-Difluorophenoxy)-3-(6-methyl-7-oxo-6,7-dihydro-1H-pyrrolo[2,3-c]pyridin-4-yl)phenyl)ethanesulfonamide], in the data set with BRD4 [10], the pIC50 is 8.82. The c-Myc expression result in the data set with c-Myc expression is recorded as “effectively downregulate”. For the same compound, the tumor cell proliferation entry in the data set with tumor cell was “inhibit tumor cell proliferation”.

Turning to `COCCNc1nnc2c3ccc(-c4c(C)noc4C)cc3n(Cc3ccccc3)c2n1` [Compound 12a], at BRD4-BD1 [7] (BRD4-BD1, FRET binding), the “pIC50 ± SD” value came out at 7.53 ± 0.12. For the same compound, the PFI in [1] was determined as 10.6. Further, the LipE at BRD4-BD1 [2] was 4.22.

Take `COCCNc1nnc2c3ccc(-c4c(C)noc4C)cc3n(C(c3ccccc3)C3CCOCC3)c2n1` (stereo not drawn) [Compound 22]: the “pIC50 ± SD” value on BRD4-BD1 [7] (BRD4-BD1, FRET binding) amounted to 8.27 ± 0.31. Moreover, the PFI in data set [1] is 10.6. Moreover, the LipE at BRD4-BD1 [2] is given as 3.69.

In turn, `Cc1nnn(C)c1-c1ccc2c3nnc(NCCO)nc3n(C(c3ccccn3)C3CCOCC3)c2c1` (stereo not drawn) [Compound 40] gave a pIC50 on BRD4-BD1 [7] (setting [16]) of 7.98 ± 0.17. Besides, the PFI in data set [1] worked out at 7.15. In addition, at BRD4-BD1 [2], the LipE is 5.79. Further, in data set [3], the Papp was 10.4 ×10⁻⁶ cm/s.

Consider `COCCNc1nnc2c3cc(-c4c(C)noc4C)ccc3n(C(c3ccccc3)C3CCOCC3)c2n1` (stereo not drawn) [Compound 23], for which the “pIC50 ± SD” value on BRD4-BD1 [7] (BRD4-BD1, FRET binding) is 6.33 ± 0.03. In data set [1], the PFI was determined as 10.7. Besides, the LipE at BRD4-BD1 [2] was 1.75.

`Cc1noc(C)c1-c1ccc2c3nnc(NCCO)nc3n(C(c3ccccn3)C3CCNCC3)c2c1` (stereo not drawn) [Compound 29] returned a pIC50 on BRD4-BD1 [7] (setting [16]) of 7.29 ± 0.06. Besides, the PFI in data set [1] was 6.74 and < 7. Also, the LipE at BRD4-BD1 [2] is reported as 4.23. The apparent permeability (Papp) in data set [3] was less than 0.3 ×10⁻⁶ cm/s.

Consider `COc1cc2c(cc1-c1c(C)noc1C)ncc1[nH]c(=O)n([C@H](C)c3ccccn3)c12` [Compound 2, I-BET151], for which the pIC50 in the data set on BRD4 [11] was 6.10. The cardiotoxicity result in data set [12] is given as “exhibited cardiotoxicity”. Besides, the c-Myc expression entry in the data set with c-Myc expression is “effectively downregulate”. Also, the tumor cell proliferation entry in the data set with tumor cell is given as “inhibit tumor cell proliferation”.

`COCCNc1nnc2c3cc(-c4c(C)noc4C)ccc3n(Cc3ccc(F)cc3)c2n1` [Compound 13b]: the “pIC50 ± SD” value on BRD4-BD1 [7] (BRD4-BD1, FRET binding) is 6.18 ± 0.05. Also, in [1], the PFI is given as 10.8. Moreover, at BRD4-BD1 [2], the LipE is listed as 2.77.

The term half-life denotes the time needed for the level to fall by half in the phase considered. Regarding `Cc1sc2c(c1C)C(c1ccc(Cl)cc1)=N[C@@H](CC(=O)OC(C)(C)C)c1nnc(C)n1-2` [Compound 1, JQ1], the pIC50 with BRD4 [13] is 7.10. Moreover, the c-Myc expression result with c-Myc expression was “effectively downregulate”. Further, in the data set with tumor cell, the tumor cell proliferation result is “inhibit tumor cell proliferation”. In addition, in [14], the half-life is reported as 1 h and the oral bioavailability result was “low”.

In turn, `COCCNc1nnc2c3ccc(-c4c(C)nnn4C)cc3n(C(c3ccccn3)C3CCNCC3)c2n1` (stereo not drawn) [Compound 30] displayed a pIC50 on BRD4-BD1 [7] (setting [16]) of 7.41 ± 0.03. Further, the PFI in data set [1] is 6.46 and < 7. The LipE at BRD4-BD1 [2] was 4.93. Besides, the apparent permeability coefficient (Papp) in [3] was less than 0.3 ×10⁻⁶ cm/s.

At BRD4-BD1 [7] (setting [15]), `Cc1nnn(C)c1-c1ccc2c3nnc(NCCO)nc3n([C@H](c3ccccn3)C3CCOCC3)c2c1` (single isomer, unassigned) [Compound 45] gave a pIC50 of 8.02 ± 0.08. In addition, in data set [1], the PFI turned out to be 7.14. In addition, the LipE on BRD4-BD1 [2] was 5.83. The Papp in data set [3] was 9.36 ×10⁻⁶ cm/s. The same compound had a Solubility in data set [4] of 138 µg/mL (≈ 276 µM). The microsomal CLint in data set [8] and in [9] was less than 10 µL/min/mg throughout.

On to `COCCNc1nnc2c(n1)[nH]c1ccc(-c3c(C)noc3C)cc12` [Compound 5b], for which the “pIC50 ± SD” value at BRD4-BD1 [7] (BRD4-BD1, FRET binding) is on record as 5.64 ± 0.05. In addition, in [1], the PFI came to 6.78. Besides, the LipE at BRD4-BD1 [2] is listed as 3.82.
